ChEMBL document CHEMBL3259687, “Synthesis and identification of chiral aminomethylpiperidine carboxamides as inhibitor of collagen induced platelet activation” (Eur J Med Chem, 2014)

How the values were obtained:
[1] = system: Mus musculus; assay: Antithrombotic activity in mouse assessed as protection against collagen-epinephrine-induced pulmonary thromboembolism at 30 uM/kg, po administered 60 mins prior to thrombotic challenge; type: functional
[2] = Antiplatelet activity in human platelet-rich plasma assessed as inhibition of collagen-induced platelet aggregation at 10 uM treated for 5 mins prior to collagen challenge for 5 mins by turbidimetric method; type: functional
[3] = Antiplatelet activity in human platelet-rich plasma assessed as inhibition of collagen-induced platelet aggregation at 30 uM treated for 5 mins prior to collagen challenge for 5 mins by turbidimetric method; type: functional
[4] = system: Mus musculus; assay: Prolongation of bleeding time in mouse at 30 uM/kg, po administered as single dose by tail excision method; type: ADME, organism-based; conditions: in vivo
[5] = Antiplatelet activity in human platelet-rich plasma assessed as inhibition of collagen-induced platelet aggregation treated for 5 mins prior to collagen challenge for 5 mins by turbidimetric method; type: functional, cell-free

Structure (SMILES)	Activity [1] [%]	inhibition at 10 µM [2] [%]	inhibition at 30 µM [3] [%]	Activity [4] [%]	inhibition (INH) [5] [%]
Cc1ccc(CN2C(=O)COC(C)[C@H]2C(=O)N2CCC[C@@H](CNC(=O)OC(C)(C)C)C2)cc1 (some centres undefined)	20				
CC(C)(C)OC(=O)NC[C@@H]1CCCN(C(=O)[C@@H]2CCC(=O)N2Cc2ccc(Br)cc2)C1	40	20			
CC1OCC(=O)N(Cc2ccccc2)[C@@H]1C(=O)N1CCC[C@@H](CNC(=O)OC(C)(C)C)C1 (some centres undefined)	20				
Cc1cccc(CN2C(=O)CC[C@H]2C(=O)N2CCC[C@@H](CNC(=O)OC(C)(C)C)C2)c1	30	28			
COc1ccccc1CN1C(=O)CC[C@H]1C(=O)N1CCC[C@H](CNC(=O)OC(C)(C)C)C1	50	22			
CC(C)(C)OC(=O)NC[C@@H]1CCCN(C(=O)[C@@H]2CCC(=O)N2Cc2cccc(C#N)c2)C1	30	6			
CC(C)(C)OC(=O)NC[C@@H]1CCCN(C(=O)[C@@H]2CCC(=O)N2Cc2ccc3ccccc3c2)C1	30	29			
CC(C)(C)OC(=O)NC[C@@H]1CCCN(C(=O)[C@@H]2CCC(=O)N2Cc2ccccc2)C1	20	26			
CC(C)(C)OC(=O)NC[C@H]1CCCN(C(=O)[C@@H]2CCC(=O)N2Cc2ccc(C#N)cc2)C1	10	25			
CC(C)(C)OC(=O)NC[C@@H]1CCCN(C(=O)[C@@H]2CCC(=O)N2Cc2ccc(Cl)cc2)C1	50	35			
CC1OCC(=O)N(Cc2ccccc2)[C@@H]1C(=O)N1CCC[C@H](CNC(=O)OC(C)(C)C)C1 (some centres undefined)	20				
CC(C)(C)OC(=O)NCC1CCN(C(=O)[C@@H]2CCC(=O)N2Cc2ccc(C#N)cc2)CC1	40		34	0	
O=C(CNC(=O)OCc1ccccc1)NCC1CCCN(C(=O)[C@@H]2CCC(=O)N2Cc2ccccc2)C1 (mixture of isomers)	40		12	13	
CC(C)(C)OC(=O)NC[C@H]1CCCN(C(=O)[C@@H]2CCC(=O)N2Cc2cccc(C#N)c2)C1	20	19			
COc1ccc(CN2C(=O)CC[C@H]2C(=O)N2CCC[C@H](CNC(=O)OC(C)(C)C)C2)cc1	20	25			
CC(C)(C)OC(=O)NC[C@@H]1CCCN(C(=O)[C@@H]2CCC(=O)N2Cc2ccccc2Br)C1	50	27			
Cc1ccc(CN2C(=O)OC[C@H]2C(=O)N2CCC[C@H](CNC(=O)OC(C)(C)C)C2)cc1	20			10	
Cc1ccc(CN2C(=O)CC[C@H]2C(=O)N2CCC[C@@H](CNS(=O)(=O)c3ccc(C)cc3)C2)cc1	40				
CC(C)(C)OC(=O)NC[C@@H]1CCCN(C(=O)[C@@H]2CCC(=O)N2Cc2ccc(Cl)c(Cl)c2)C1	20	27			
CC(C)(C)OC(=O)NC[C@@H]1CCCN(C(=O)[C@@H]2CCC(=O)N2Cc2c(Cl)cccc2Cl)C1	20	24			
CC(C)(C)OC(=O)NC[C@H]1CCCN(C(=O)[C@@H]2CCC(=O)N2Cc2c(Cl)cccc2Cl)C1	10	22			
Cc1ccc(CN2C(=O)CCC[C@H]2C(=O)N2CCC[C@@H](CNC(=O)OC(C)(C)C)C2)cc1	40	18			
Cc1ccc(C(=O)N2CSC[C@H]2C(=O)N2CCC[C@H](CNC(=O)OC(C)(C)C)C2)cc1	40			50	
CC(C)(C)OC(=O)NCC1CCCN(C(=O)[C@@H]2CCC(=O)N2Cc2ccc(Br)cc2)C1 (mixture of isomers)	67		66.4	60	
Cc1ccc(CN2C(=O)CSC[C@H]2C(=O)N2CCCC(CNC(=O)OC(C)(C)C)C2)cc1 (single isomer, unassigned)	30	18			
CC(C)(C)OC(=O)NCC1CCN(C(=O)[C@@H]2CCC(=O)N2Cc2c(Cl)cccc2Cl)CC1	70		80	50	
Cc1ccc(CN2C(=O)CC[C@H]2C(=O)N2CCC[C@@H](CNC(=O)[C@H](CC(C)C)NC(=O)OCc3ccccc3)C2)cc1	30				

Structure (SMILES)	Activity [1] [%]	inhibition at 10 µM [2] [%]	inhibition at 30 µM [3] [%]	Activity [4] [%]	inhibition (INH) [5] [%]
COc1cccc(CN2C(=O)CC[C@H]2C(=O)N2CCC[C@H](CNC(=O)OC(C)(C)C)C2)c1	22.3	6			
CC(C)(C)OC(=O)NC[C@H]1CCCN(C(=O)[C@@H]2CCC(=O)N2Cc2ccc(Br)cc2)C1	50	4			
COc1ccccc1CN1C(=O)CC[C@H]1C(=O)N1CCC[C@@H](CNC(=O)OC(C)(C)C)C1	40	32			
Cc1cccc(CN2C(=O)CC[C@H]2C(=O)N2CCC[C@H](CNC(=O)OC(C)(C)C)C2)c1	70	13			
Cc1ccc(S(=O)(=O)NCC2CCCN(C(=O)[C@@H]3CCC(=O)N3Cc3ccccc3)C2)cc1 (mixture of isomers)	25		72	0	
CC(C)(C)OC(=O)NC[C@H]1CCCN(C(=O)[C@@H]2CCC(=O)N2Cc2ccccc2Br)C1	50	6			
CC(C)(C)OC(=O)NC[C@H]1CCCN(C(=O)[C@@H]2CCC(=O)N2Cc2ccc3ccccc3c2)C1	22.3	22			
CC(C)(C)OC(=O)NCC1CCCN(C(=O)[C@@H]2CCC(=O)N2C/C=C/c2ccccc2)C1 (mixture of isomers)	30		42	0	
CC(C)(C)OC(=O)NC[C@H]1CCCN(C(=O)[C@@H]2CCC(=O)N2Cc2ccc(Cl)cc2)C1	15	21			
Cc1ccc(CN2C(=O)CC[C@H]2C(=O)N2CCC[C@@H](CNC(=O)[C@H](Cc3ccccc3)NC(=O)OCc3ccccc3)C2)cc1	30				
Cc1ccc(CN2C(=O)CC[C@H]2C(=O)N2CCC[C@@H](CNC(=O)[C@@H](NC(=O)OCc3ccccc3)C(C)C)C2)cc1	10				
COc1cccc(CN2C(=O)CC[C@H]2C(=O)N2CCC[C@@H](CNC(=O)OC(C)(C)C)C2)c1		34			
CC(C)(C)C(=O)NCC1CCCN(C(=O)[C@@H]2CCC(=O)N2Cc2ccccc2)C1 (mixture of isomers)	50		2.4	41	
O=C([C@@H]1CCC(=O)N1Cc1ccccc1)N1CCN(c2ccccc2Cl)CC1	40				74
Cc1ccc(CN2C(=O)CCC[C@H]2C(=O)N2CCC[C@H](CNC(=O)OC(C)(C)C)C2)cc1	50	22			
CC(C)(C)OC(=O)NC[C@H]1CCCN(C(=O)[C@@H]2CCC(=O)N2Cc2ccccc2)C1	50	17			
CC(C)(C)OC(=O)NC[C@@H]1CCCN(C(=O)[C@@H]2CCC(=O)N2Cc2ccc(C#N)cc2)C1	60	8			
Cc1ccc(CN2C(=O)CC[C@H]2C(=O)N2CCC[C@@H](CNC(=O)c3ccc(C)cc3)C2)cc1	30				
O=C(NCC1CCN(C(=O)[C@@H]2CCC(=O)N2Cc2ccc(Br)cc2)CC1)OCc1ccccc1	70		11	25	
CC(C)(C)OC(=O)NC[C@H]1CCCN(C(=O)[C@@H]2CCC(=O)N2Cc2ccc(Cl)c(Cl)c2)C1	30	24			
COc1ccc(CN2C(=O)CC[C@H]2C(=O)N2CCC[C@@H](CNC(=O)OC(C)(C)C)C2)cc1	20	7			
Cc1ccc(CN2C(=O)COC(C)[C@H]2C(=O)N2CCC[C@H](CNC(=O)OC(C)(C)C)C2)cc1 (some centres undefined)	30				
Cc1ccc(C(=O)N2CSC[C@H]2C(=O)N2CCC[C@@H](CNC(=O)OC(C)(C)C)C2)cc1	10			8	
Cc1ccc(CN2C(=O)OC[C@H]2C(=O)N2CCC[C@@H](CNC(=O)OC(C)(C)C)C2)cc1	30			54	
Cc1ccc(CN2C(=O)CSCC2C(=O)N2CCC[C@@H](CNC(=O)OC(C)(C)C)C2)cc1 (single isomer, unassigned)	30	15			
O=C([C@@H]1CCC(=O)N1Cc1ccccc1)N1CCN(c2ccccc2F)CC1	50				57
